Assays:
[1] = tested on: HB2 and MDA-MB-231 cells; test: Transfection with pmaxGFP plasmid and cytotoxicity of plasmid:compound complexes; type: cell-based, human; conditions: pmaxGFP:compound complex 4.62 × 10^−10 M
From the text: Figure 10 (A) Fluorescence imaging of HB-2 and MDA-MB-231 cells transfected with pmaxGFP plasmid mixed with compounds 5, 13, 14, or the commercially available transfection reagent (control). (B) Cytotoxicity of plasmid pmaxGFP:compound complex in HB2 and MDA-MB-231 cells at the concentration of the complex equal to 4.62 × 10^−10 M.
In this experiment, second-generation compounds (compounds 5, 13, and 14) were used as transfection reagents. See transfection procedure in methodology below. After gene expression, the medium was removed and cells were lysed with 0.5 M NaOH (100 µL/well), and the fluorescence intensity was analyzed using a microplate reader at excitation and emission wavelengths of 488 and 510 nm, respectively.
In this experiment, second-generation (GO2)n compounds (compounds 5, 13, and 14) were used as transfection reagents. HB2 and MDA-MB-231 were seeded in 96-well plates at a density of 5 × 10^3/well and 7 × 10^3/well in complete medium and grown until 60–70% confluency. […] The DNA concentration was determined using UV readout at 260/280 nm. […] Results were observed by fluorescence microscopy.

[2] = tested on: HB2 and MDA-MB-231 cells; test: Cytotoxicity assay CCK-8; type: cell-based, human; conditions: CCK8, Figure S5; 1–100 µM; 2 h or 24 h
Procedure: Cell viability against cell-penetrating peptidomimetics was detected using the cell counting kit-8 (CCK-8) assay (Sigma Aldrich, Poznan, Poland). The HB2 and MDA-MB-231 cells were seeded into 96-well plates at a density of 5 × 10^3/well and 7 × 10^3/well, respectively, and incubated in complete medium (100 µL/well) for 48 h. Then, the medium was replaced with fresh medium (100 µL/well), and solutions of compounds at various concentrations (1, 5, 10, 20, 50, and 100 µM) were added; the cells were incubated for 2 h or 24 h. Cells incubated in media without any additives were used as control. After incubation, 10 µL/well of 2-(2-methoxy-4-nitrophenyl)-3-(4-nitrophenyl)-5-(2,4-disulfophenyl)-2H-tetrazolium, monosodium salt (WST-8) reagent was added according to the manufacturers’ instructions, and the mixture was incubated at 37 °C for 4 h. Cell viability was analyzed on the basis of formazan absorbance using a microplate reader (SPECTROstar Nano, BMG LABTECH, Ortenberg, Germany) at 450 nm.
Table 1S. Minimal charge to ratio (N/P) of each compoun d for efficient complexation with
DNA. *minimal N/P ratio resulting in effective complex formation based on EMSA. **ND ‐
No Sequence Minimal N/P ratio*
9 O2Oc‐[Dap(HO2)]6‐O2Oc‐NH2 No binding
Figure 5S. CCK8 cytotoxicity assay performed for three compounds (5, 13, and 14). Two
different cell lines were used: A) HB‐2 and B) MDA‐MB‐231 […]

How did the Post-transfection cytotoxicity [1] turn out when `N=C(N)NCCOCCOCC(=O)NC[C@H](NC(=O)COCCOCCN)C(=O)N[C@@H](CNC(=O)COCCOCCNC(=N)N)C(=O)N[C@@H](CNC(=O)COCCOCCNC(=N)N)C(=O)N[C@@H](CNC(=O)COCCOCCNC(=N)N)C(=O)N[C@@H](CNC(=O)COCCOCCNC(=N)N)C(=O)N[C@@H](CNC(=O)COCCOCCNC(=N)N)C(=O)N[C@@H](CNC(=O)COCCOCCNC(=N)N)C(=O)N[C@@H](CNC(=O)COCCOCCNC(=N)N)C(=O)NCCOCCOCC(N)=O` [compound 14, O2Oc-[Dap(GO2)]8-O2Oc-NH2] was run?
The Post-transfection cytotoxicity was 30%.

What about the “Cytotoxicity (CCK-8), in words” value [2] of the same molecule?
Its value is “low cytotoxicity”.

Reference: article PMC7961587, “Novel Cell Permeable Polymers of N-Substituted L-2,3-Diaminopropionic Acid (DAPEGs) and Cellular Consequences of Their Interactions with Nucleic Acids” (International Journal of Molecular Sciences, 2021)
